Experimental data as given in ChEMBL document CHEMBL4049425, “Fragment-Based, Structure-Enabled Discovery of Novel Pyridones and Pyridone Macrocycles as Potent Bromodomain and Extra-Terminal Domain (BET) Family Bromodomain Inhibitors” (J Med Chem, 2017).

Key:
[1] = biological target: T1, Bromodomain-containing protein 4 (Homo sapiens, UniProt O60885); test: Inhibition of BRD4 in human NCI-H1299 cells after 24 hrs by Bright-Glo luciferase reporter gene assay; type: cell-based
MX1 = test: Antiproliferative activity against human MX1 cells after 72 hrs by Cell Titer Glo assay; type: functional, cell-based; details: MX1, 72 h
[2] = biological target: T1, Bromodomain-containing protein 4; test: Inhibition of human N-terminal His6-tagged BRD4 BD1-BD2 (57 to 550 residues) expressed in EScherichia coli BL21(DE3) after 1 hr by Alexa-647-conjugated probe based TR-FRET assay
[3] = Lipophilicity, log D of the compound; type: physicochemical; details: octanol/water
Liver [4] = test: Unbound intrinsic clearance in rat liver microsomes; type: ADME, microsome
Liver [5] = test: Unbound intrinsic clearance in mouse liver microsomes; type: ADME, microsome
Liver [6] = test: Unbound intrinsic clearance in human liver microsomes; type: ADME, microsome
Mus musculus [7] = test: Unbound AUC in mouse at 1 mg/kg, po; type: ADME, organism-based; details: in vivo
Mus musculus [8] = test: Fraction absorbed in portal vein of mouse at 1 mg/kg, iv or 1 mg/kg, po; type: ADME, organism-based; details: in vivo
[9] = Fraction unbound in mouse plasma at 1 uM after 4 hrs by LC-MS/MS analysis; type: ADME, cell-free
Mus musculus [10] = test: Unbound clearance in mouse at 1 mg/kg, iv or 1 mg/kg, po; type: ADME, organism-based; details: in vivo
[11] = Oral bioavailability in mouse at 1 mg/kg; type: ADME, organism-based; details: in vivo
[12] = Permeability of the compound by PAMPA; type: physicochemical; details: read-out: permeability
Mus musculus [13] = test: Fraction absorbed in portal vein of mouse at 3 mg/kg, iv or 10 mg/kg, po; type: ADME, organism-based; details: in vivo
Mus musculus [14] = test: Unbound plasma clearance in mouse at 3 mg/kg, iv or 10 mg/kg, po; type: ADME, organism-based; details: in vivo
Mus musculus [15] = test: Dose normalized fAUC in mouse at 3 mg/kg, iv or 10 mg/kg, po; type: ADME, organism-based; details: in vivo
[16] = Oral bioavailability in mouse at 10 mg/kg; type: ADME, organism-based; details: in vivo
[17] = Fraction unbound in rat plasma; type: ADME, cell-free
Rattus norvegicus [18] = test: Unbound clearance in rat at 1 mg/kg, iv or 1 mg/kg, po; type: ADME, organism-based; details: in vivo
[19] = Oral bioavailability in rat at 1 mg/kg; type: ADME, organism-based; details: in vivo
Rattus norvegicus [20] = test: Unbound AUC in rat at 1 mg/kg, po; type: ADME, organism-based; details: in vivo

Row | Structure (SMILES) | EC50 [1] [nM] | EC50 (MX1) [nM] | Ki [2] [nM] | logD [3] | CL free (Liver [4]) [mL/min/kg] | CL free (Liver [5]) [mL/min/kg] | CL free (Liver [6]) [mL/min/kg] | further results
1 | CCS(=O)(=O)Nc1ccc(Oc2ccc(F)cc2F)c(-c2cn(C)c(=O)cc2OCC(F)(F)F)c1 | 100 | 120 | 22 | 2.8 to 4.3 | – | – | – | –
2 | CCS(=O)(=O)c1ccc2c(c1)-c1cn(C)c(=O)cc1OCCc1ccccc1O2 | 630 | 710 | 100 | 2.8 to 4.3 | 167 | 333 | 100 | –
3 | CCOc1cc(=O)n(C)cc1-c1cc(NS(=O)(=O)CC)ccc1Oc1ccc(Cl)cc1 | 27 | 18 | 2.6 | – | 88.3 | < 148 | < 50 | –
4 | CCOc1cc(=O)n(C)cc1-c1cc(NS(=O)(=O)CC)ccc1OC1CCC(F)(F)CC1 | 390 | 250 | 110 | – | 183 | 167 | 35 | –
5 | CCS(=O)(=O)Nc1ccc(Oc2ccc(F)cc2F)c(-c2cn(C)c(=O)cc2OCCN2CCOCC2)c1 | 2200 | > 3000 | 230 | 2.8 to 4.3 | – | – | – | –
6 | CCS(=O)(=O)c1ccc2c(c1)-c1cn(C)c(=O)cc1OCCCCc1cc(Cl)ccc1O2 | 16 | 13 | 2 | 2.8 to 4.3 | 700 | 883 | 167 | fAUC (Mus musculus [7]): 41 ng·h/mL; FaFg (Mus musculus [8]): 0.44; fraction unbound at 4 h, 1 µM [9]: 0.04; CL free (Mus musculus [10]): 167 mL/min/kg; bioavailability [11]: 41%; Papp [12]: 7.6 ×10⁻⁶ cm/s
7 | CCOc1cc(=O)n(C)cc1-c1cc(NS(=O)(=O)CC)ccc1Oc1ccc(OC(F)(F)F)cc1 | 210 | 62 | 5.5 | – | 3000 | 1500 | 95 | –
8 | CCOc1cc(=O)n(C)cc1-c1cc(S(=O)(=O)CC)ccc1Oc1ccc(F)cc1F | 66 | 40 | – | 2.8 to 4.3 | 103 | 200 | < 33 | FaFg (Mus musculus [13]): 0.52; fraction unbound at 4 h, 1 µM [9]: 0.1; CL free (Mus musculus [14]): 167 mL/min/kg; fAUC/dose (Mus musculus [15]): 0.039 µg·h/mL per mg/kg; bioavailability [16]: 41%
9 | CCS(=O)(=O)Nc1cnc2c(c1)-c1cn(C)c(=O)cc1OCCCCc1cc(Cl)ccc1O2 | 9.3 | 5.7 | 3.4 | 2.8 to 4.3 | 153 | 1030 | 63.3 | fraction unbound [17]: 0.12; CL free (Rattus norvegicus [18]): 833 mL/min/kg; fAUC (Mus musculus [7]): 120 ng·h/mL; FaFg (Mus musculus [8]): 0.76; bioavailability [19]: 19%; fAUC (Rattus norvegicus [20]): 5 ng·h/mL; fraction unbound at 4 h, 1 µM [9]: 0.06; CL free (Mus musculus [10]): 102 mL/min/kg; bioavailability [11]: 70%; Papp [12]: 7.2 ×10⁻⁶ cm/s
10 | CCOc1cc(=O)n(C)cc1-c1cc(CS(C)(=O)=O)ccc1Oc1ccc(F)cc1F | 230 | 140 | 120 | 2.8 to 4.3 | – | – | – | –
11 | CCS(=O)(=O)Nc1ccc(Oc2ccc(F)cc2F)c(-c2cn(C)c(=O)cc2OCC(C)(C)O)c1 | 1100 | 710 | 71 | 2.8 to 4.3 | – | – | – | –
12 | CNc1cc(=O)n(C)nc1-c1ccccc1 | – | – | 160000 | – | – | – | – | –
13 | CCOc1cc(=O)n(C)cc1-c1cc(NS(=O)(=O)CC)ccc1Oc1ccc(F)cc1 | 69 | 16 | 5.6 | – | 167 | < 98.3 | < 33 | –
14 | CCS(=O)(=O)Nc1ccc2c(c1)-c1cn(C)c(=O)cc1OCCCCc1cc(F)cc(F)c1O2 | – | – | – | 2.8 to 4.3 | 317 | 700 | 67 | fAUC (Mus musculus [7]): 8 ng·h/mL; fraction unbound at 4 h, 1 µM [9]: 0.03; Papp [12]: 6.8 ×10⁻⁶ cm/s
15 | CCOc1cc(=O)n(C)cc1-c1cc(NS(=O)(=O)CC)ccc1Oc1ccc(F)cc1F | – | – | – | 2.8 to 4.3 | 60 | < 100 | < 71.7 | FaFg (Mus musculus [13]): 0.79; fraction unbound at 4 h, 1 µM [9]: 0.1; CL free (Mus musculus [14]): 267 mL/min/kg; bioavailability [16]: 56%
16 | CCS(=O)(=O)c1ccc2c(c1)-c1cn(C)c(=O)cc1OCCCc1ccccc1O2 | 26 | 6.9 | 7.3 | 2.8 to 4.3 | – | 900 | 148 | –
17 | CCS(=O)(=O)Nc1ccc2c(c1)-c1cn(C)c(=O)cc1OCCCCCc1cc(Cl)ccc1O2 | 35 | 16 | 2.8 | 4.3 | 1830 | 4670 | 517 | Papp [12]: 0.89 ×10⁻⁶ cm/s
18 | CCOc1cc(=O)n(C)cc1-c1cc(NS(=O)(=O)CC)cnc1Oc1ccc(F)cc1F | 45 | 32 | 8.7 | 2.8 to 4.3 | – | – | – | –

Row | Structure (SMILES) | EC50 [1] [nM] | EC50 (MX1) [nM] | Ki [2] [nM] | logD [3] | CL free (Liver [4]) [mL/min/kg] | CL free (Liver [5]) [mL/min/kg] | CL free (Liver [6]) [mL/min/kg] | further results
19 | CCOC(=O)Nc1ccc(Oc2ccccc2)c(-c2nn(C)c(=O)cc2OC)c1 | 4900 | 4500 | 1100 | – | – | – | – | –
20 | CCS(=O)(=O)Nc1ccc(Oc2ccc(F)cc2F)c(-c2cn(C)c(=O)cc2OC2COC2)c1 | 48 | 25 | 9 | 2.8 to 4.3 | < 41.7 | 150 | 76.7 | FaFg (Mus musculus [13]): 0.3; fraction unbound at 4 h, 1 µM [9]: 0.2; CL free (Mus musculus [14]): 143 mL/min/kg; fAUC/dose (Mus musculus [15]): 0.026 µg·h/mL per mg/kg; bioavailability [16]: 20%
21 | CCOc1cc(=O)n(C)cc1-c1cc(NS(=O)(=O)CC)ccc1Oc1ccc(C#N)cc1 | 55 | 53 | 16 | – | < 43.3 | < 76.7 | < 26.7 | –
22 | Cn1cc2c(cc1=O)OCCCCc1cc(Cl)ccc1Oc1ccc(CS(C)(=O)=O)cc1-2 | 18 | 19 | 3.8 | 2.8 to 4.3 | 317 | 1670 | 267 | fAUC (Mus musculus [7]): 29 ng·h/mL; FaFg (Mus musculus [8]): 0.79; fraction unbound at 4 h, 1 µM [9]: 0.03; CL free (Mus musculus [10]): 400 mL/min/kg; bioavailability [11]: 68%; Papp [12]: 9.2 ×10⁻⁶ cm/s
23 | CCNc1cc(=O)n(C)cc1-c1cc(NS(=O)(=O)CC)ccc1Oc1ccc(F)cc1F | 140 | 30 | 14 | 2.8 to 4.3 | – | – | – | –
24 | CCS(=O)(=O)Nc1cnc2c(c1)-c1cn(C)c(=O)cc1OCCCCc1cc(F)cc(F)c1O2 | 6.4 | 4.2 | 0.8 | 2.8 to 4.3 | 75 | 250 | < 28.3 | fAUC (Mus musculus [7]): 15 ng·h/mL; FaFg (Mus musculus [8]): 0.49; fraction unbound at 4 h, 1 µM [9]: 0.12; CL free (Mus musculus [10]): 317 mL/min/kg; bioavailability [11]: 27%; Papp [12]: 9 ×10⁻⁶ cm/s
25 | CCOc1cc(=O)n(C)cc1-c1cc(NS(=O)(=O)CC)ccc1Oc1cccnc1 | 150 | 50 | 17 | – | < 53.3 | < 53.3 | < 31.7 | –
26 | COc1cc(=O)n(C)cc1-c1cc(NS(C)(=O)=O)ccc1Oc1ccccc1 | 77 | 130 | 58 | – | – | – | – | –
27 | COc1cc(=O)n(C)nc1-c1cc(N)ccc1Oc1ccccc1 | 2900 | 7200 | 1700 | – | – | – | – | –
28 | CCNC(=O)Nc1ccc(Oc2ccccc2)c(-c2nn(C)c(=O)cc2OC)c1 | 2800 | 13000 | 1900 | – | – | – | – | –
29 | CCOc1cc(=O)n(C)cc1-c1cc(NS(=O)(=O)CC)ccc1Oc1ccccc1 | 39 | 4.7 | 4.4 | – | 3000 | 91.7 | 67 | –
30 | COC(=O)C[C@@H]1N=C(c2ccc(Cl)cc2)c2c(sc(C)c2C)-n2c(C)nnc21 | – | – | 16.7 | – | – | – | – | –
31 | CCS(=O)(=O)Nc1ccc(Oc2ccccc2)c(-c2cn(C)c(=O)cc2OC)c1 | 67 | 16 | 8.2 | – | – | – | – | –
32 | CCS(=O)(=O)Nc1ccc(Oc2ccc(F)cc2F)c(-c2cn(C)c(=O)cc2OCC(C)C)c1 | 180 | 140 | 7 | 2.8 to 4.3 | – | – | – | –
33 | COc1cc(=O)n(C)nc1-c1cc(NC(C)=O)ccc1Oc1ccccc1 | 370 | 1300 | 900 | – | – | – | – | –
34 | CCS(=O)(=O)c1ccc2c(c1)-c1cn(C)c(=O)cc1OCCCCc1ccccc1O2 | 6.7 | 10 | 1.9 | 2.8 to 4.3 | 533 | 867 | 130 | –
35 | COc1cc(=O)n(C)nc1-c1cc(NS(C)(=O)=O)ccc1Oc1ccccc1 | 230 | 730 | 140 | – | – | – | – | –
36 | COc1cc(=O)n(C)cc1-c1ccccc1Oc1ccccc1 | 2800 | 1500 | 450 | – | – | – | – | –
